Measurements reported in US10059713B2 (Takeda Pharmaceutical Company Limited, priority 2014, dated 2018).

The compounds below were run against human GPR43 (Homo sapiens (Human), UniProt O15552) (assay: Ca-Flux functional assay: determination of agonist/positive allosteric modulator (PAM) activity). Conditions: CHO-K1 Gα16 cells stably expressing human GPR43; compound added with EC20 sodium acetate; intracellular Ca2+ by FLIPR; does not distinguish agonist from PAM.
Assay type: cell-based
Procedure, shortened: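 CHO-K1 Gα16 cells stably expressing human GPR43, loaded with Calcium 5 dye 1 h; compounds (10-point half-log from 10 μM) added with sodium acetate at EC20. FLIPR calcium signal gave EC50, two wells per point; agonists and PAMs not distinguished.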

Sequence of human GPR43 (O15552 whole entry): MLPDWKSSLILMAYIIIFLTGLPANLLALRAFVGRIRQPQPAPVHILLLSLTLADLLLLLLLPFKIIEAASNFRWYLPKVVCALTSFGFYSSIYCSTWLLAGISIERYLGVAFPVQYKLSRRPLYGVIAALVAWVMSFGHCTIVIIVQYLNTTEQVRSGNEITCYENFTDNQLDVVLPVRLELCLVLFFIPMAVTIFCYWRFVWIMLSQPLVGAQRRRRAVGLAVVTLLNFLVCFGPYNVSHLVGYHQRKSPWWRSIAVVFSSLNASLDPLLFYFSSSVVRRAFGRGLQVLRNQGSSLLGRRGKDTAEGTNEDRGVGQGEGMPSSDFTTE

EC50 [nM]	Structure (SMILES)
2	Cc1nc(N2CCO[C@@H](C)C2)c2[nH]c(N)c(S(=O)(=O)c3ccc(Br)cc3F)c2n1 [Example 239, 7-(4-bromo-2-fluorobenzenesulfonyl)-2-methyl-4-[(2S)-2-methylmorpholin-4-yl]-5H-pyrrolo[3,2-d]pyrimidin-6-amine]
78	CC1CC1COc1ncnc2c(S(=O)(=O)c3ccccc3)c(N)[nH]c12 (stereo not drawn) [Example 172, 7-(benzenesulfonyl)-4-[(2-methylcyclopropyl)methoxy]-5H-pyrrolo[3,2-d]pyrimidin-6-amine]
17	CC1CCCN(c2ncnc3c(S(=O)(=O)c4ccccc4)c(N)[nH]c23)C1 (stereo not drawn) [Example 58, 7-(benzenesulfonyl)-4-(3-methylpiperidin-1-yl)-5H-pyrrolo[3,2-d]pyrimidin-6-amine]
88	CC1CN(c2ncnc3c(S(=O)(=O)c4cc(F)cc(F)c4)c(N)[nH]c23)CCO1 (stereo not drawn) [Example 147, 7-(3,5-difluorobenzenesulfonyl)-4-(2-methylmorpholin-4-yl)-5H-pyrrolo[3,2-d]pyrimidin-6-amine]
133	Cc1nc(OC2CCOC(C)(C)C2)c2[nH]c(N)c(S(=O)(=O)c3ccccc3)c2n1 (stereo not drawn) [Example 253, 7-(benzenesulfonyl)-4-[(2,2-dimethyloxan-4-yl)oxy]-2-methyl-5H-pyrrolo[3,2-d]pyrimidin-6-amine]
112	Nc1[nH]c2c(/C=C/C3CC3)ncnc2c1S(=O)(=O)c1ccccc1 [Example 11, 7-(benzenesulfonyl)-4-[(E)-2-cyclopropylethenyl]-5H-pyrrolo[3,2-d]pyrimidin-6-amine]
17	CC1CN(c2nc(C(F)(F)F)nc3c(S(=O)(=O)c4ccccc4F)c(N)[nH]c23)CCO1 (stereo not drawn) [Example 268, 7-(2-fluorobenzenesulfonyl)-4-(2-methylmorpholin-4-yl)-2-(trifluoromethyl)-5H-pyrrolo[3,2-d]pyrimidin-6-amine]
3	Cc1nc(N2CCOC3(CC3)C2)c2[nH]c(N)c(S(=O)(=O)c3ccccc3F)c2n1 [Example 208, 7-(2-fluorobenzenesulfonyl)-2-methyl-4-{4-oxa-7-azaspiro[2.5]octan-7-yl}-5H-pyrrolo[3,2-d]pyrimidin-6-amine]
8	CC1CN(c2ncnc3c(S(=O)(=O)c4ccccc4)c(N)[nH]c23)CCS1 (stereo not drawn) [Example 195, 7-(benzenesulfonyl)-4-(2-methylthiomorpholin-4-yl)-5H-pyrrolo[3,2-d]pyrimidin-6-amine]
133	Nc1[nH]c2c(N3CCOC(C4CC4)C3)ncnc2c1S(=O)(=O)c1ccccc1 (stereo not drawn) [Example 80, 7-(benzenesulfonyl)-4-(2-cyclopropylmorpholin-4-yl)-5H-pyrrolo[3,2-d]pyrimidin-6-amine]
18	CSc1nc(N2CCOC(C)C2)c2[nH]c(N)c(S(=O)(=O)c3ccccc3)c2n1 (stereo not drawn) [Example 238, 7-(benzenesulfonyl)-4-(2-methylmorpholin-4-yl)-2-(methylsulfanyl)-5H-pyrrolo[3,2-d]pyrimidin-6-amine]
553	C=C(C)c1ncnc2c(S(=O)(=O)c3ccc(OC)cc3)c(N)[nH]c12 [Example 71, 7-(4-methoxybenzenesulfonyl)-4-(prop-1-en-2-yl)-5H-pyrrolo[3,2-d]pyrimidin-6-amine]
235	Nc1[nH]c2c(C3=CCCCC3)ncnc2c1Sc1ccccc1 [Example 135, 4-(cyclohex-1-en-1-yl)-7-(phenylsulfanyl)-5H-pyrrolo[3,2-d]pyrimidin-6-amine]
9	Cc1nc(N2CCOC(C)(C)C2)c2[nH]c(N)c(S(=O)(=O)c3c(F)cccc3F)c2n1 [Example 287, 7-(2,6-difluorobenzenesulfonyl)-4-(2,2-dimethylmorpholin-4-yl)-2-methyl-5H-pyrrolo[3,2-d]pyrimidin-6-amine]
209	Nc1[nH]c2c(N3CCCCCC3)ncnc2c1S(=O)(=O)c1ccccc1 [Example 48, 4-(azepan-1-yl)-7-(benzenesulfonyl)-5H-pyrrolo[3,2-d]pyrimidin-6-amine]
50	Nc1[nH]c2c(OCC3CCCC3)ncnc2c1S(=O)(=O)c1ccccc1 [Example 201, 7-(benzenesulfonyl)-4-(cyclopentylmethoxy)-5H-pyrrolo[3,2-d]pyrimidin-6-amine]
2	Cc1nc(N2CCO[C@@H](C)C2)c2[nH]c(N)c(S(=O)(=O)c3ccccc3F)c2n1 [Example 218, 7-(2-fluorobenzenesulfonyl)-2-methyl-4-[(2S)-2-methylmorpholin-4-yl]-5H-pyrrolo[3,2-d]pyrimidin-6-amine]
43	Cc1nc(N2CCOC(C)C2)c2[nH]c(N)c(S(=O)(=O)c3cccc(F)c3)c2n1 (stereo not drawn) [Example 180, 7-(3-fluorobenzenesulfonyl)-2-methyl-4-(2-methylmorpholin-4-yl)-5H-pyrrolo[3,2-d]pyrimidin-6-amine]

EC50 [nM]	Structure (SMILES)
3	Cc1nc(N2CCO[C@@H](C(F)(F)F)C2)c2[nH]c(N)c(S(=O)(=O)c3cccc(F)c3F)c2n1 [Example 286, 7-(2,3-difluorobenzenesulfonyl)-2-methyl-4-[(2R)-2-(trifluoromethyl)morpholin-4-yl]-5H-pyrrolo[3,2-d]pyrimidin-6-amine]
29	Cc1nc(OC2CCC(F)(F)CC2)c2[nH]c(N)c(S(=O)(=O)c3ccccc3)c2n1 [Example 254, 7-(benzenesulfonyl)-4-[(4,4-difluorocyclohexyl)oxy]-2-methyl-5H-pyrrolo[3,2-d]pyrimidin-6-amine]
19	CC1CN(c2ncnc3c(S(=O)(=O)c4ccccc4)c(N)[nH]c23)C(C)CO1 (stereo not drawn) [Example 85, 7-(benzenesulfonyl)-4-(2,5-dimethylmorpholin-4-yl)-5H-pyrrolo[3,2-d]pyrimidin-6-amine]
57	CC1CCN(c2ncnc3c(S(=O)(=O)c4ccccc4)c(N)[nH]c23)CC1 [Example 59, 7-(benzenesulfonyl)-4-(4-methylpiperidin-1-yl)-5H-pyrrolo[3,2-d]pyrimidin-6-amine]
1	Cc1nc(N2CCO[C@H](C(F)(F)F)C2)c2[nH]c(N)c(S(=O)(=O)c3ccccc3F)c2n1 [Example 281, 7-(2-fluorobenzenesulfonyl)-2-methyl-4-[(2S)-2-(trifluoromethyl)morpholin-4-yl]-5H-pyrrolo[3,2-d]pyrimidin-6-amine]
4	Cc1nc(N2CCO[C@H](C(F)(F)F)C2)c2[nH]c(N)c(S(=O)(=O)c3c(F)cccc3F)c2n1 [Example 294, 7-(2,6-Difluorobenzenesulfonyl)-2-methyl-4-[(2S)-2-(trifluoromethyl)morpholin-4-yl]-5H-pyrrolo[3,2-d]pyrimidin-6-amine]
31	Cc1nc(N2CCCC(C)C2)c2[nH]c(N)c(S(=O)(=O)c3cccc(F)c3)c2n1 (stereo not drawn) [Example 198, 7-(3-fluorobenzenesulfonyl)-2-methyl-4-(3-methylpiperidin-1-yl)-5H-pyrrolo[3,2-d]pyrimidin-6-amine]
73	Nc1[nH]c2c(OCC3CCCCC3)ncnc2c1S(=O)(=O)c1ccccc1 [Example 165, 7-(benzenesulfonyl)-4-(cyclohexylmethoxy)-5H-pyrrolo[3,2-d]pyrimidin-6-amine]
858	CCOC1CCCN(c2ncnc3c(S(=O)(=O)c4ccccc4)c(N)[nH]c23)C1 (stereo not drawn) [Example 113, 7-(benzenesulfonyl)-4-(3-ethoxypiperidin-1-yl)-5H-pyrrolo[3,2-d]pyrimidin-6-amine]
83	CC(C)C1CN(c2ncnc3c(S(=O)(=O)c4ccccc4)c(N)[nH]c23)CCO1 (stereo not drawn) [Example 184, 7-(benzenesulfonyl)-4-[2-(propan-2-yl)morpholin-4-yl]-5H-pyrrolo[3,2-d]pyrimidin-6-amine]
3	Cc1nc(N2C[C@@H](C)OC[C@H]2C)c2[nH]c(N)c(S(=O)(=O)c3ccccc3F)c2n1 [Example 232, 4-[(2R,5R)-2,5-dimethylmorpholin-4-yl]-7-(2-fluorobenzenesulfonyl)-2-methyl-5H-pyrrolo[3,2-d]pyrimidin-6-amine]
2	COc1ccc(S(=O)(=O)c2c(N)[nH]c3c(N4CCO[C@@H](C(F)(F)F)C4)nc(C)nc23)c(F)c1 [Example 293, 7-(2-fluoro-4-methoxybenzenesulfonyl)-2-methyl-4-[(2R)-2-(trifluoromethyl)morpholin-4-yl]-5H-pyrrolo[3,2-d]pyrimidin-6-amine]
625	CC1CN(c2ncnc3c(S(=O)(=O)c4cccnc4)c(N)[nH]c23)CCO1 (stereo not drawn) [Example 122, 4-(2-methylmorpholin-4-yl)-7-(pyridine-3-sulfonyl)-5H-pyrrolo[3,2-d]pyrimidin-6-amine]
20	Cc1nc(N2CCC(F)(F)CC2)c2[nH]c(N)c(S(=O)(=O)c3ccccc3)c2n1 [Example 142, 7-(benzenesulfonyl)-4-(4,4-difluoropiperidin-1-yl)-2-methyl-5H-pyrrolo[3,2-d]pyrimidin-6-amine]
32	COc1ccc(S(=O)(=O)c2c(N)[nH]c3c(N4CCC(F)(F)CC4)ncnc23)cc1 [Example 68, 4-(4,4-difluoropiperidin-1-yl)-7-(4-methoxybenzenesulfonyl)-5H-pyrrolo[3,2-d]pyrimidin-6-amine]
1210	COCC1CN(c2ncnc3c(S(=O)(=O)c4ccccc4)c(N)[nH]c23)CCO1 (stereo not drawn) [Example 81, 7-(benzenesulfonyl)-4-[2-(methoxymethyl)morpholin-4-yl]-5H-pyrrolo[3,2-d]pyrimidin-6-amine]
5090	COC(=O)Nc1[nH]c2c(C3=CCCCC3)ncnc2c1S(=O)(=O)c1ccccc1 [Example 17, Methyl-N-[7-(benzenesulfonyl)-4-(cyclohex-1-en-1-yl)-5H-pyrrolo[3,2-d]pyrimidin-6-yl]carbamate]
36	Nc1[nH]c2c(C3=CCC(F)(F)CC3)ncnc2c1S(=O)(=O)c1ccccc1 [Example 127, 7-(benzenesulfonyl)-4-(4,4-difluorocyclohex-1-en-1-yl)-5H-pyrrolo[3,2-d]pyrimidin-6-amine]
